Patent US7622269B2, “Methods of screening tyramine- and octopamine-expressing cells for compounds and compositions having potential insect control activity” (Tyratech, Inc., priority 2004, dated 2009)

Test system: octopamine synthesis mutant (iav) Drosophila melanogaster strain
Type: in vivo
Conditions: for toxicity in iav strain compared with wild type: in vivo; for % Mortality at LD50 of wild/type Drosophila melanogaster strain, iav: topical, 24 hour

Row | SMILES | toxicity in iav strain compared with wild type | % Mortality at LD50 of wild/type Drosophila melanogaster strain, iav [%]
1 | CCC(=O)OCCc1ccccc1 [2-phenylethyl propionate] | remarkably increased | 80.0
2 | OCC=Cc1ccccc1 [cinnamic alcohol, 3-phenyl-2-propen-1-ol] | remarkably increased | 80.0
3 | Cc1ccc(C(C)C)cc1 [p-cymene, methyl(1-methylethyl)benzene] | does not affect the toxicity | 40.0
4 | CC(C)=CCCC(C)=CCO [geraniol, 3,7-dimethyl-2,6-octadien-1-ol] | does not affect the toxicity | 60.0
5 | C=CCc1ccc(O)c(OC)c1 [eugenol, 2-methoxy-4-(2-propenyl)phenol] | remarkably increased | 80.0
6 | COC(=O)c1ccccc1O [methyl salicylate, 2-hydroxybenzoic acid methyl ester] | does not affect the toxicity | 46.6
